# Test results published in patent publication US8846909B2, “Bicyclic heteroaryl kinase inhibitors and methods of use” (University of Rochester, priority 2010, dated 2014).
# Structures can show the parent of a compound that is named as a salt.
# Target: T1, MLK3 (Homo sapiens, UniProt Q16584)
# T1 construct: purchased Dundee DU8313
# Assay: Radiometric filter plate MLK3 assay; further: 2 µM cold ATP (Km)
# Format: biochemical
# Settings: read-out: MK3 IC50
# Method: After a twenty minute incubation, the reactions were washed through filter plates and read on a scintillation counter. Results are shown in Table 10 below, in which +++ indicates ≦0.1 μM, ++ indicates >0.1 μM and ≦1 μM, and + indicates >1 μM.
# T1 sequence (Q16584 whole entry): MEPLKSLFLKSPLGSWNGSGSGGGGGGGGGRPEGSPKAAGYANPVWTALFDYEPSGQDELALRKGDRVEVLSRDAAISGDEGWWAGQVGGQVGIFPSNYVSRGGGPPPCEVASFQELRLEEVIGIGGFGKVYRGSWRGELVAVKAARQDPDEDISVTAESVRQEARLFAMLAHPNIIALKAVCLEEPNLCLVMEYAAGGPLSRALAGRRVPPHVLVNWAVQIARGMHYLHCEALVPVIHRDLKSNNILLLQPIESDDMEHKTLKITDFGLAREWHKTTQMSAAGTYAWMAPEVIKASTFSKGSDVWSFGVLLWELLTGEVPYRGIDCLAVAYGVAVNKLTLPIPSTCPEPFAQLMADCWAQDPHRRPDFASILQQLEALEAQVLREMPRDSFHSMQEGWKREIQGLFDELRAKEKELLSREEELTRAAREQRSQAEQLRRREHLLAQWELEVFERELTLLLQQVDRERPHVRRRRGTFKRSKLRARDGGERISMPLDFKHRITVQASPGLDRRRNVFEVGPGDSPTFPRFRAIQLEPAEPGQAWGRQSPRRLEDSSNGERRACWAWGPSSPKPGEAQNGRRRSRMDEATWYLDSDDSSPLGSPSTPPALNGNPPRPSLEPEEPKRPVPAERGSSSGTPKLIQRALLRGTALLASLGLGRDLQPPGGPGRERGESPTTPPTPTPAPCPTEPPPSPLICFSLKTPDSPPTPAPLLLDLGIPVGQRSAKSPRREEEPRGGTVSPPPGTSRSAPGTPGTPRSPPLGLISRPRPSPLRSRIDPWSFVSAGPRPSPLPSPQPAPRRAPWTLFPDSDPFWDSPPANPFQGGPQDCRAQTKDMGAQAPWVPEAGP
row,SMILES,IC50 [nM]
1,"COc1cc(-c2cnc3c(c2)C(Cc2ccc(C(N)=O)cc2)C(=O)N3)cc(OC)c1OC (centres unmarked) [Example 138, 4-[2-oxo-5-(3,4,5-trimethoxy-phenyl)-2,3-dihydro-1H-pyrrolo[2,3-b]pyridin-3-ylmethyl]-benzamide]",> 1000
2,"CN1CCN(Cc2ccc(-c3cnc4[nH]cc(-c5ccc6[nH]ccc6c5)c4c3)cc2)CC1=O [Example 141, 4-{4-[3-(1H-indol-5-yl)-1H-pyrrolo[2,3-b]pyridin-5-yl]-benzyl}-1-methyl-piperazin-2-one]",< 100
3,"O=C1CN(Cc2ccc(-c3cnc4[nH]cc(-c5ccc6[nH]ccc6c5)c4c3)cc2)CCN1 [Example 142, 4-{4-[3-(1H-indol-5-yl)-1H-pyrrolo[2,3-b]pyridin-5-yl]-benzyl}-piperazin-2-one]",< 100
4,"CN1CCN(Cc2cccc(-c3cnc4[nH]cc(-c5ccc6[nH]ccc6c5)c4c3)c2)CC1=O [Example 143, 4-{3-[3-(1H-indol-5-yl)-1H-pyrrolo[2,3-b]pyridin-5-yl]-benzyl}-1-methyl-piperazin-2-one]",< 100
5,"CC(C)(C)OC(=O)N1CCN(Cc2ccc(-c3cnc4[nH]cc(-c5ccc6[nH]ccc6c5)c4c3)cc2)CC1 [Example 144, 4-{4-[3-(1H-indol-5-yl)-1H-pyrrolo[2,3-b]pyridin-5-yl]-benzyl}-piperazine-1-carboxylic acid tert-butyl ester]",< 100
6,"CN1CCN(C(=O)c2ccc(-c3cnc4[nH]cc(-c5ccc6[nH]ccc6c5)c4c3)cc2)CC1 [Example 145, {4-[3-(1H-indol-5-yl)-1H-pyrrolo[2,3-b]pyridin-5-yl]-phenyl}-(4-methyl-piperazin-1-yl)-methanone]",100 to 1000
7,"CC(=O)N1CCN(C(=O)c2ccc(-c3cnc4[nH]cc(-c5ccc6[nH]ccc6c5)c4c3)cc2)CC1 [Example 146, 1-(4-{4-[3-(1H-indol-5-yl)-1H-pyrrolo[2,3-b]pyridin-5-yl]-benzoyl}piperazin-1-yl)-ethanone]",< 100
8,"CC(C)(C)OC(=O)N1CCN(C(=O)c2ccc(-c3cnc4[nH]cc(-c5ccc(C(N)=O)cc5)c4c3)cc2)CC1 [Example 148, 4-{4-[3-(4-carbamoyl-phenyl)-1H-pyrrolo[2,3-b]pyridin-5-yl]-benzoyl}-piperazine-1-carboxylic acid tert-butyl ester]",< 100
9,"NC(=O)c1ccc(-c2c[nH]c3ncc(-c4ccc(C(=O)N5CCNCC5)cc4)cc23)cc1 [Example 149, 4-{5-[4-(piperazine-1-carbonyl)-phenyl]-1H-pyrrolo[2,3-b]pyridin-3-yl}-benzamide, hydrochloride salt]",< 100
10,"CC(C)(C)OC(=O)N1CCN(C(=O)c2cccc(-c3cnc4[nH]cc(-c5ccc(C(N)=O)cc5)c4c3)c2)CC1 [Example 151, 4-{3-[3-(4-carbamoyl-phenyl)-1H-pyrrolo[2,3-b]pyridin-5-yl]-benzoyl}-piperazine-1-carboxylic acid tert-butyl ester]",< 100
11,"COc1cc(-c2cc3c(-c4ccc(C(N)=O)cc4)c[nH]c3[n+]([O-])c2)cc(OC)c1OC [Example 154, 4-[7-oxy-5-(3,4,5-trimethoxy-phenyl)-1H-pyrrolo[2,3-b]pyridin-3-yl]benzamide]",100 to 1000
12,"CN1CCN(Cc2cccc(-c3cnc4[nH]cc(-c5ccc(C(N)=O)cc5)c4c3)c2)CC1 [Example 156, 4-{5-[3-(4-methyl-piperazin-1-ylmethyl)-phenyl]-1H-pyrrolo[2,3-b]pyridin-3-yl}-benzamide]",< 100
13,"CC(=O)N1CCN(Cc2ccc(-c3cnc4[nH]cc(-c5ccc(C(N)=O)cc5)c4c3)cc2)CC1 [Example 157, 4-{5-[4-(4-acetyl-piperazin-1-ylmethyl)-phenyl]-1H-pyrrolo[2,3-b]pyridin-3-yl}-benzamide]",< 100
14,"CN1CCN(Cc2ccc(-c3cnc4[nH]cc(-c5ccc(C(N)=O)cc5)c4c3)cc2)CC1=O [Example 158, 4-{5-[4-(4-methyl-3-oxo-piperazin-1-ylmethyl)-phenyl]-1H-pyrrolo[2,3-b]pyridin-3-yl}-benzamide]",< 100
